# Publication PMC10313921, “A living ex vivo platform for functional, personalized brain cancer diagnosis” (Cell Reports Medicine, 2023)
# Experiments:
# Format in all cases: cell-based, human
# [1] = system: MB231Br (breast cancer metastasis to brain); experiment: Drug screening of MB231Br tumor foci on OBSCs
# [2] = system: LN229 (established GBM line); experiment: Drug screening of LN229 tumor foci on OBSCs
# Summary of the method: (§1)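 Drug effects on tumor foci grown on brain slices are quantified by bioluminescence three days after treatment, relative to untreated foci and day-one fluorescence. Efficacy versus slice toxicity is combined into a weighted drug sensitivity score.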
# [3] = system: U373WT (wild-type established GBM line); experiment: Drug screening of U373WT tumor foci on OBSCs; details: U373 WT on OBSCs
# Summary of the method: as §1
# [4] = system: U373KO (RAD18 knockout of U373WT via CRISPR); experiment: Drug screening of U373KO tumor foci on OBSCs; details: U373 KO on OBSCs
# Summary of the method: as §1
# [5] = system: GBM8 (high-passage patient-derived GBM line); experiment: Drug screening of GBM8 tumor foci on OBSCs
# Summary of the method: as §1
# [6] = system: MS21 (low-passage patient-derived GBM line); experiment: Drug screening of MS21 tumor foci on OBSCs
# Summary of the method: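 Tumor foci (25,000 cells) were seeded onto organotypic brain slice cultures 2 h after slicing, two per slice; one day later six drug concentrations were added to the medium or X-ray was applied. Bioluminescence was read 3 days after treatment, normalized to day-one fluorescence and to untreated controls.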
# [7] = system: PDIPG (low-passage pediatric patient-derived line); experiment: Drug screening of PDIPG tumor foci on OBSCs
# Summary of the method: as §1
# [8] = system: PIS patient tumor tissue (intracranial sarcoma); experiment: Drug screening of uncultured patient tumor tissue PIS on OBSCs; details: Homo sapiens; PIS on OBSCs; dose required to kill 90% of the tumor
# Experimental: (§2) Tumor cells were seeded onto OBSCs 2h after slicing as described above. One day after tumor seeding, six concentrations of each drug were diluted in the media underneath each culture insert, or XRad was applied using an X-Rad 320 Precision X-ray machine (n = 4 tumor foci per concentration; n ≥ 24 tumor foci per drug per cell line). Three days after treatment, the bioluminescence of live tumor cells was measured using an AMI optical imager (Spectral Instruments) and dose-response curves were generated. Tumor survival was normalized to day one tumor fluorescence and compared to an untreated control group.
# (§3) To engraft onto OBSCs, the cryopreserved/thawed or fresh brain tumor tissue was filtered through a 100 μm cell strainer. Each 50 mg of tissue was transfected with 1mL mcherry-FLuc Lentivirus at 1.5e7 vg/ml with 1μL polybrene for 4h at 37°C. After incubation, the brain tumor tissue was washed with PBS three times to remove the residual virus and reconstituted in PBS with a final volume of 150 μL. Then the tissue solution was engrafted atop OBSCs at ∼0.5 mg tissue in 3 μL of PBS on each hemisphere of the slice. The OBSC engrafted with patient tumor tissue was incubated at 37°C with 5% CO2 and 95% humidity. The BSM was changed after 24h and subsequently every 3 days. Tumor treatment studies were executed as described above for tumor lines. The viability of the patient tissue was measured by an AMI optical imaging system with the addition of 1.5 mg/mL luciferin underneath the culture insert.
# (§4) Several weighted parameters were factored into an overall drug sensitivity score.
# (§5) For DSS parameters 1–6, therapeutic windows were calculated by comparing OBSC toxicity and tumor response at the doses where tumor kill passed through the DSS parameter (Table S1 and S3). For DSS parameter 7, the therapeutic window was calculated by comparing the slopes through the tumor EC50 and the OBSC tox EC50. For DSS parameter 8, the therapeutic window was calculated by comparing the areas under tumor kill and OBSC tox curves. Normalized therapeutic window ratios for DSS parameters 1–8 within each drug-tumor-OBSC interaction were calculated in the following manner: within each window, values ranged from +1 to −1, where values approaching +1 signify increasing tumor kill relative to normal tissue toxicity, and values approaching −1 indicate agents where tumors remained highly viable while toxicity to the normal OBSC tissue was elevated. DSS parameters 9–11 were determined based on the behavior of the tumor in response to the drug, as defined above.
# (§6) All individually weighed parameters were added together to generate the DSS. Overall DSS from 0 to 100 signify increasing efficacy in tumor kill relative to OBSC toxicity, while scores from 0 to −100 describe scenarios in which tumors thrive more effectively than OBSCs for a given treatment. Dose-response values were calculated via linear interpolation of raw data, not from best-fit curve equations.
# [9] = system: PGBM patient tumor tissue (pediatric GBM); experiment: Drug screening of uncultured patient tumor tissue PGBM on OBSCs; details: Homo sapiens, PGBM on OBSCs
# Experimental: as §2, §3, §4, §5, §6
# [10] = system: 7 cell lines (MB231Br, LN229, U373WT, U373KO, GBM8, MS21, PDIPG); experiment: Drug screening on OBSCs, summary over the panel of seven tumor lines
# Summary of the method: as §1
# [11] = area under the dose-response curve, trapezoidal rule
# [12] = dose required to kill 10% of the tumor
# [13] = dose required to kill 25% of the tumor
# [14] = dose required to kill 75% of the tumor
# [15] = Homo sapiens, U373 MG, dose required to kill 50% of the tumor
# [16] = Homo sapiens, U373 MG, dose required to kill 90% of the tumor
# [17] = Homo sapiens, U373 MG, dosed day 1, survival via bioluminescence day 4, linear interpolation
smiles,measurement,setting,value
Nc1ncn([C@@H]2O[C@H](CO)[C@@H](O)[C@H]2O)c(=O)n1 [Azacitidine],EC50,"[1]; Homo sapiens, MB231BR on OBSCs, dose required to kill 50% of the tumor",208 µM
same,EC90,"[1]; Homo sapiens, MB231BR on OBSCs, dose required to kill 90% of the tumor",906 µM
same,IC50,"[1]; Homo sapiens, MB231Br on OBSCs, dosed day 1, survival via bioluminescence day 4, linear interpolation",208 µM
same,Killing at highest dose,[1]; MB231BR on OBSCs,9.50E-01 fraction of tumor population killed
same,AUC,"[1]; MB231BR on OBSCs, area under the dose-response curve, trapezoidal rule",3.36E+02
same,EC10,"[1]; MB231BR on OBSCs, dose required to kill 10% of the tumor",4.76 µM
same,EC25,"[1]; MB231BR on OBSCs, dose required to kill 25% of the tumor",18.9 µM
same,EC75,"[1]; MB231BR on OBSCs, dose required to kill 75% of the tumor",625 µM
same,Slope,"[1]; MB231BR on OBSCs, slope through the EC50",-1.20E-03
same,Killing at highest dose,[2],8.60E-01 fraction of tumor population killed
same,EC50,"[2]; Homo sapiens, LN-229, dose required to kill 50% of the tumor",400 µM
same,EC90,"[2]; Homo sapiens, LN-229, dose required to kill 90% of the tumor",> 10 µM
same,IC50,"[2]; Homo sapiens, LN-229, dosed day 1, survival via bioluminescence day 4, linear interpolation",400 µM
same,AUC,[2]; [11],4.51E+02
same,EC10,[2]; [12],28.9 µM
same,EC25,[2]; [13],45.6 µM
same,EC75,[2]; [14],817 µM
same,Slope,[2]; slope through the EC50,-6.00E-04
same,EC50,[3]; [15],800 µM
same,EC90,[3]; [16],> 10 µM
same,IC50,[3]; [17],800 µM
same,Killing at highest dose,[3],5.40E-01 fraction of tumor population killed
same,AUC,[3]; [11],5.88E+02
same,EC10,[3]; [12],61.1 µM
same,EC25,[3]; [13],81.9 µM
same,Slope,[3]; slope through the EC50,-2.00E-04
same,EC50,[4]; [15],158 µM
same,EC90,[4]; [16],> 10 µM
same,IC50,[4]; [17],158 µM
same,Killing at highest dose,[4],8.30E-01 fraction of tumor population killed
same,AUC,[4]; [11],3.39E+02
same,EC10,[4]; [12],23.8 µM
same,EC25,[4]; [13],44.5 µM
same,EC75,[4]; [14],647 µM
same,Slope,[4]; slope through the EC50,-1.73E-03
same,Killing at highest dose,[5]; GBM8 on OBSCs,1.00E+00 fraction of tumor population killed
same,AUC,"[5]; GBM8 on OBSCs, area under the dose-response curve, trapezoidal rule",4.08E+01
same,EC10,"[5]; GBM8 on OBSCs, dose required to kill 10% of the tumor",8.33 µM
same,EC25,"[5]; GBM8 on OBSCs, dose required to kill 25% of the tumor",18.1 µM
same,EC75,"[5]; GBM8 on OBSCs, dose required to kill 75% of the tumor",49.4 µM
same,Slope,"[5]; GBM8 on OBSCs, slope through the EC50",-1.60E-02
same,EC50,[5]; Homo sapiens,33.8 µM
same,EC90,[5]; Homo sapiens,83.3 µM
same,IC50,[5]; Homo sapiens,34 µM
same,EC50,[6]; Homo sapiens,821 µM
same,EC90,[6]; Homo sapiens,> 10 µM
same,IC50,[6]; Homo sapiens,821 µM
same,Killing at highest dose,[6]; MS21 on OBSCs,5.50E-01 fraction of tumor population killed
same,AUC,"[6]; MS21 on OBSCs, area under the dose-response curve, trapezoidal rule",6.06E+02
same,EC10,"[6]; MS21 on OBSCs, dose required to kill 10% of the tumor",31.5 µM
same,EC25,"[6]; MS21 on OBSCs, dose required to kill 25% of the tumor",90.9 µM
same,Slope,"[6]; MS21 on OBSCs, slope through the EC50",-2.80E-04
same,EC50,[7]; Homo sapiens,447 µM
same,EC90,[7]; Homo sapiens,> 10 µM
same,IC50,[7]; Homo sapiens,447 µM
same,Killing at highest dose,[7]; PDIPG on OBSCs,6.40E-01 fraction of tumor population killed
same,AUC,"[7]; PDIPG on OBSCs, area under the dose-response curve, trapezoidal rule",5.03E+02
same,EC10,"[7]; PDIPG on OBSCs, dose required to kill 10% of the tumor",3.7 µM
same,EC25,"[7]; PDIPG on OBSCs, dose required to kill 25% of the tumor",9.26 µM
same,Slope,"[7]; PDIPG on OBSCs, slope through the EC50",-2.53E-04
same,EC90,[8],> 10 µM
same,EC50,[9]; dose required to kill 50% of the tumor,> 100 µM
same,EC90,[9]; dose required to kill 90% of the tumor,> 10 µM
same,IC50,"[10]; Homo sapiens, read-out: IC50 values, range over the cell lines",200 to 400 µM
same,response / killing over the 7 cell lines,[10]; number of lines responding,7 of 7
